In patent publication US12264156B2, “Compounds and pharmaceutical compositions thereof for the treatment of diseases” (GALAPAGOS NV, priority 2018, dated 2025):

What was measured:
[1] = test system: LPS triggered IL-10 secretion in monocytes; assay: Monocytes assay: LPS-triggered IL-10 (ELISA); format: cell-based, human; conditions: LPS 200 ng/mL, supernatant after 4 h, maximal fold change vs LPS only
In short: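 Human CD14+ monocytes, magnetically isolated from buffy-coat PBMCs, were seeded at 100 000 cells/well and preincubated with compound for 1 h at 37° C (0.2% DMSO). LPS was then added at a final 200 ng/mL for 4 h. Supernatant IL-10 was quantified by chemiluminescent sandwich ELISA against a standard curve.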

SIK1 = target: T1, SIK1 (Homo sapiens, UniProt P57059); assay: ADP-Glo kinase assay, SIK1; format: biochemical; conditions: ADP-Glo SIK kinase assay
T1 construct: purchased Carna Biosciences 02-131
In short: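 Wells with 1% DMSO or 10 μM staurosporine (final) define the control window. The kinase reaction with substrate and ATP runs 120 min at RT, followed by ADP-Glo detection: ATP depletion (40 min) and ADP-derived luminescence (30 min).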

SIK2 = target: T2, SIK2 (Homo sapiens, UniProt Q9H0K1); assay: ADP-Glo kinase assay, SIK2; format: biochemical; conditions: ADP-Glo SIK kinase assay
T2 construct: purchased ThermoFisher Scientific PV4792
In short: (§1)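 ADP-Glo, RT throughout. Enz/substrate + ATP, 120 min; ADP-Glo reagent 40 min (ATP depletion); detection reagent 30 min; luminescence read. Neg ctrl 1% DMSO, pos ctrl 10 μM staurosporine, final concs.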

[2] = test system: LPS-induced TNFα in monocytes; assay: Monocytes assay: LPS-triggered TNFα (ELISA); format: cell-based, human; conditions: Homo sapiens, Monocyte, LPS 200 ng/mL, supernatant after 4 h
In short: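 Human CD14+ monocytes from buffy-coat PBMCs (magnetic bead selection) were seeded at 100 000 cells/well and pretreated with compound for 1 h at 37° C (0.2% DMSO). They were then stimulated with 200 ng/mL LPS for 4 h, and supernatant TNFα was measured by chemiluminescent sandwich ELISA as percent inhibition.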

SIK3 = target: T3, SIK3 (Homo sapiens, UniProt Q9Y2K2); assay: ADP-Glo kinase assay, SIK3; format: biochemical; conditions: ADP-Glo SIK kinase assay
T3 construct: purchased SignalChem S12-11G-100
In short: as §1

T3 sequence (Q9Y2K2 whole entry): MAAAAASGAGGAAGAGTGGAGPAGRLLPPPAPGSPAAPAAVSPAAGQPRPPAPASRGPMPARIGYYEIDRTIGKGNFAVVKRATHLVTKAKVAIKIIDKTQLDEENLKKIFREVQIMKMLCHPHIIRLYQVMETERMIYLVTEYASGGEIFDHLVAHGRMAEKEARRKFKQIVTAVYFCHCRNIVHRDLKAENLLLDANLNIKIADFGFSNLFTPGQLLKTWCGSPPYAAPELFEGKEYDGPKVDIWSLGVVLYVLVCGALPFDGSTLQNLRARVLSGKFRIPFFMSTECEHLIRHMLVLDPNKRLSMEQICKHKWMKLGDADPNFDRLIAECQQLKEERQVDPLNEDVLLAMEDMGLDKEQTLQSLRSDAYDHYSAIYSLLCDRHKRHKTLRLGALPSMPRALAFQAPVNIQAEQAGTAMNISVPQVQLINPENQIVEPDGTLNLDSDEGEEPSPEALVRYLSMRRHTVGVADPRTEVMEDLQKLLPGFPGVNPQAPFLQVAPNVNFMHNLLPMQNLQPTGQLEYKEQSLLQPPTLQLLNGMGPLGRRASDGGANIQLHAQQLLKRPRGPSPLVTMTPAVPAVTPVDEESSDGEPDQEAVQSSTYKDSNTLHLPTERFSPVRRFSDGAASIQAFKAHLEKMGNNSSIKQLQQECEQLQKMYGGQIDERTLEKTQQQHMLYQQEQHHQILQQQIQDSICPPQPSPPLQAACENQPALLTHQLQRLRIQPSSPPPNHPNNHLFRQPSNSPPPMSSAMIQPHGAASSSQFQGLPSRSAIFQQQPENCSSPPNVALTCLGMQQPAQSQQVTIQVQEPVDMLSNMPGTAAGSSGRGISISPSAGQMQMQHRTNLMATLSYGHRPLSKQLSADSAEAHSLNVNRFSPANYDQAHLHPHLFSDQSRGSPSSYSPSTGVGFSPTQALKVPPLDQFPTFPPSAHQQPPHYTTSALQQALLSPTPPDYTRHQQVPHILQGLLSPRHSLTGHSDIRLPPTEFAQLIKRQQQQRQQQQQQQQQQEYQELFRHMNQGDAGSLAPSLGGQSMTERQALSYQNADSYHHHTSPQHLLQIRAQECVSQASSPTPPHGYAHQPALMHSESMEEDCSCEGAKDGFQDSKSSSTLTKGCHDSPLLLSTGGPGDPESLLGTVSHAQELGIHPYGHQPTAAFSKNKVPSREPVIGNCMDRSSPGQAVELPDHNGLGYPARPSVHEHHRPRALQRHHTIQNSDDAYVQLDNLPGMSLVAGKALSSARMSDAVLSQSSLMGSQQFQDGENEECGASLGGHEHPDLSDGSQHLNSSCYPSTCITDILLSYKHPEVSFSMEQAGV
T1 sequence (P57059 whole entry): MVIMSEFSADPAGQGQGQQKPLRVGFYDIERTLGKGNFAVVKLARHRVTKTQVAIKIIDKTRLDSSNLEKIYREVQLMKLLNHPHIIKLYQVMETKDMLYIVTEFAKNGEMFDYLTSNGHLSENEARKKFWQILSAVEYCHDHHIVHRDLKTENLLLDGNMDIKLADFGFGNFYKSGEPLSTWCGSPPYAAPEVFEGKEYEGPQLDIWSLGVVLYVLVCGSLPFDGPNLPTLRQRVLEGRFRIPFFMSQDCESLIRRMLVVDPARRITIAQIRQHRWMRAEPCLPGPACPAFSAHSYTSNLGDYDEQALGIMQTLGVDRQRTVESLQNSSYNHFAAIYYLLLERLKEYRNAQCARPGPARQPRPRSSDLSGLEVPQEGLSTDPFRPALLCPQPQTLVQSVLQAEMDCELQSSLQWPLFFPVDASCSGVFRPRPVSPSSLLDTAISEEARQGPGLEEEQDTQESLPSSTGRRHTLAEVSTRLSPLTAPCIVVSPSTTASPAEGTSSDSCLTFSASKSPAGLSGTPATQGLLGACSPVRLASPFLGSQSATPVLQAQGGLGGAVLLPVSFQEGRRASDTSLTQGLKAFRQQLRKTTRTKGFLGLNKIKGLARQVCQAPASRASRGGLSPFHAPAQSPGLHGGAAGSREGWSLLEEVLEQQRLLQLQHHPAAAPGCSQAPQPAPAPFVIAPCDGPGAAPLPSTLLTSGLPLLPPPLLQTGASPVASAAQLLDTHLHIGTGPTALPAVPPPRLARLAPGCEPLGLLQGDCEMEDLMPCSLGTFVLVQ
T2 sequence (Q9H0K1 whole entry): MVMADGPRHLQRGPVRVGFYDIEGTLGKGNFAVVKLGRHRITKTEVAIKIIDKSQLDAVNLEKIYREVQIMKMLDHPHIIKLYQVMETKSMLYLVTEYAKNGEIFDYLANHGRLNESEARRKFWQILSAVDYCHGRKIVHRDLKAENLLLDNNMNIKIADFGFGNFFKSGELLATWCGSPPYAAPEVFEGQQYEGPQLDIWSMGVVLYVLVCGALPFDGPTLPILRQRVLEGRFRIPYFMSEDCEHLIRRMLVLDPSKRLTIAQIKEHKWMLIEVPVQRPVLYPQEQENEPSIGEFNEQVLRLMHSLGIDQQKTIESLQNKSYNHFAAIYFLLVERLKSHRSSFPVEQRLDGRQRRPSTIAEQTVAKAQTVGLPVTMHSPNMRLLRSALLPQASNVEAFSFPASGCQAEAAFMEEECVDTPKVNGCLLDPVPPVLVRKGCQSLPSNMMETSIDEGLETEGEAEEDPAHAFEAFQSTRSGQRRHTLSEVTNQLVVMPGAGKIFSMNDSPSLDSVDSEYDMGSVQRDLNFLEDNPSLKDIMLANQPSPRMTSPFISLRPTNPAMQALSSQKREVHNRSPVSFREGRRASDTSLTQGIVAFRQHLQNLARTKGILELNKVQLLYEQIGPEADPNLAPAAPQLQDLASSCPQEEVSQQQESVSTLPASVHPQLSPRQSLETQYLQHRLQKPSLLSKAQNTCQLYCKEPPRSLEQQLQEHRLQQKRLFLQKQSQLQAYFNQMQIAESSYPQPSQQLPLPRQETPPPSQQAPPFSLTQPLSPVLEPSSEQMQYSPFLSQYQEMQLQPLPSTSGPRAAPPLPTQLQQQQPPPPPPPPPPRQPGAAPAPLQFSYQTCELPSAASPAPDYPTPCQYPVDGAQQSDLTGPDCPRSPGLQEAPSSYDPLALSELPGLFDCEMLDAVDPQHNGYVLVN

| IC50 (SIK1) [nM] | IC50 (SIK2) [nM] | IC50 (SIK3) [nM] | EC50 ([2]; 4 h) [nM] | Compound | IL-10 FCmax median [1] | EC50 [2] [nM] |
| --- | --- | --- | --- | --- | --- | --- |
| 10 to 100 | 0.01 to 10 | 0.01 to 10 | 100 to 1000 | COc1cc(-c2cnc3cc(OCC(O)CN4CCS(=O)(=O)CC4)ccn23)cc(OC(F)F)c1C(=O)NC1CC1 (stereo not drawn) [compound 374, N-cyclopropyl-2-(difluoromethoxy)-4-[7-[3-(1,1-dioxo-1,4-thiazinan-4-yl)-2-hydroxy-propoxy]imidazo[1,2-a]pyridin-3-yl]-6-methoxy-benzamide] | +++ (>4.5) | – |
| 0.01 to 10 | 0.01 to 10 | 0.01 to 10 | 0.1 to 100 | COc1cc(-c2cnc3cc(OCCCN4CCN(C(C)C)CC4)ccn23)cc(OC(F)F)c1C(=O)NC1CC1 [Cpd 279, N-cyclopropyl-2-(difluoromethoxy)-4-[7-[3-(4-isopropylpiperazin-1-yl)propoxy]imidazo[1,2-a]pyridin-3-yl]-6-methoxy-benzamide] | +++ (>4.5) | – |
| 10 to 100 | 0.01 to 10 | 0.01 to 10 | 0.1 to 100 | COc1cc(-c2cnc3cc(OC[C@H]4CCN(C(C)C)C4)ccn23)cc(OC(F)F)c1C(=O)NC1CC1 [compound 316, N-cyclopropyl-2-(difluoromethoxy)-4-[7-[[(3S)-1-isopropylpyrrolidin-3-yl]methoxy]imidazo[1,2-a]pyridin-3-yl]-6-methoxy-benzamide] | +++ (>4.5) | – |
| 10 to 100 | 0.01 to 10 | 0.01 to 10 | 100 to 1000 | COc1cc(-c2cnc3cc(OC[C@@H]4CCNC4)ccn23)cc(OC(F)F)c1C(=O)NC1CC1 [Cpd 334, N-cyclopropyl-2-(difluoromethoxy)-6-methoxy-4-[7-[[(3R)-pyrrolidin-3-yl]methoxy]imidazo[1,2-a]pyridin-3-yl]benzamide] | ++ (>1.5-4.5) | – |
| 10 to 100 | 0.01 to 10 | 0.01 to 10 | 0.1 to 100 | COc1cc(-c2cnc3cc(OCCC4CCCN4C(C)C)ccn23)cc(OC(F)F)c1C(=O)NC1CC1 (stereo not drawn) [compound 301, N-cyclopropyl-2-(difluoromethoxy)-4-[7-[2-(1-isopropylpyrrolidin-2-yl)ethoxy]imidazo[1,2-a]pyridin-3-yl]-6-methoxy-benzamide] | +++ (>4.5) | – |
| 10 to 100 | 0.01 to 10 | 0.01 to 10 | 0.1 to 100 | COc1cc(-c2cnc3cc(OC[C@H]4CCCN(C(C)C)C4)ccn23)cc(OC(F)F)c1C(=O)NC1CC1 [compound 329, N-cyclopropyl-2-(difluoromethoxy)-4-[7-[[(3S)-1-isopropyl-3-piperidyl]methoxy]imidazo [1,2-a]pyridin-3-yl]-6-methoxy-benzamide] | +++ (>4.5) | – |
| 10 to 100 | 0.01 to 10 | 0.01 to 10 | 100 to 1000 | COc1cc(-c2cnc3cc(OCCOCCN4CCN(C(C)C)CC4)ccn23)cc(OC(F)F)c1C(=O)NC1CC1 [compound 298, N-cyclopropyl-2-(difluoromethoxy)-4-[7-[2-[2-(4-isopropylpiperazin-1-yl)ethoxy]ethoxy]imidazo [1,2-a]pyridin-3-yl]-6-methoxy-benzamide] | +++ (>4.5) | – |
| 10 to 100 | 0.01 to 10 | 0.01 to 10 | 100 to 1000 | COc1cc(-c2cnc3cc(OCCCN4CCCCC4)ccn23)cc(OC(F)F)c1C(=O)N1CC(O)(C(F)(F)F)C1 [compound 354, [2-(difluoromethoxy)-6-methoxy-4-[7-[3-(1-piperidyl)propoxy]imidazo[1,2-a]pyridin-3-yl]phenyl]-[3-hydroxy-3-(trifluoromethyl)azetidin-1-yl]methanone] | +++ (>4.5) | – |
| 10 to 100 | 0.01 to 10 | 0.01 to 10 | 0.1 to 100 | COc1cc(-c2cnc3cc(OCCCN4CCC(O)CC4)ccn23)cc(OC(F)F)c1C(=O)NC1CC1 [compound 277, N-cyclopropyl-2-(difluoromethoxy)-4-[7-[3-(4-hydroxy-1-piperidyl)propoxy]imidazo [1,2-a]pyridin-3-yl]-6-methoxy-benzamide] | +++ (>4.5) | – |
| 10 to 100 | 0.01 to 10 | 0.01 to 10 | 0.1 to 100 | CCOC(=O)C1(C)CN(CCCOc2ccn3c(-c4cc(OC)c(C(=O)NC5CC5)c(OC(F)F)c4)cnc3c2)C1 [compound 385, ethyl 1-[3-[3-[4-(cyclopropylcarbamoyl)-3-(difluoromethoxy)-5-methoxy-phenyl]imidazo[1,2-a]pyridin-7-yl]oxypropyl]-3-methyl-azetidine-3-carboxylate] | +++ (>4.5) | – |
| 10 to 100 | 0.01 to 10 | 0.01 to 10 | 0.1 to 100 | CCOC(=O)C1(O)CCN(CCCOc2ccn3c(-c4cc(OC)c(C(=O)NC5CC5)c(OC(F)F)c4)cnc3c2)CC1 [compound 381, ethyl 1-[3-[3-[4-(cyclopropylcarbamoyl)-3-(difluoromethoxy)-5-methoxy-phenyl]imidazo[1,2-a]pyridin-7-yl]oxypropyl]-4-hydroxy-piperidine-4-carboxylate] | ++ (>1.5-4.5) | – |
| 10 to 100 | 0.01 to 10 | 0.01 to 10 | 0.1 to 100 | COc1cc(-c2cnc3cc(OCC(O)CN4CC(C(=O)OC(C)(C)C)C4)ccn23)cc(OC(F)F)c1C(=O)NC1CC1 (stereo not drawn) [compound 394, tert-butyl 1-[3-[3-[4-(cyclopropylcarbamoyl)-3-(difluoromethoxy)-5-methoxy-phenyl]imidazo[1,2-a]pyridin-7-yl]oxy-2-hydroxy-propyl]azetidine-3-carboxylate] | ++ (>1.5-4.5) | – |

| Compound | IC50 (SIK1) [nM] | IC50 (SIK2) [nM] | IC50 (SIK3) [nM] | EC50 ([2]; 4 h) [nM] | IL-10 FCmax median [1] | EC50 [2] [nM] |
| --- | --- | --- | --- | --- | --- | --- |
| CCOC(=O)C1(c2ccccc2)CCN(CCCOc2ccn3c(-c4cc(OC)c(C(=O)NC5CC5)c(OC(F)F)c4)cnc3c2)CC1 [compound 378, ethyl 1-[3-[3-[4-(cyclopropylcarbamoyl)-3-(difluoromethoxy)-5-methoxy-phenyl]imidazo[1,2-a]pyridin-7-yl]oxypropyl]-4-phenyl-piperidine-4-carboxylate] | 10 to 100 | 0.01 to 10 | 0.01 to 10 | – | ++ (>1.5-4.5) | 0.1 to 100 |
| CCOC(=O)CN1[C@@H]2CC[C@H]1CC(Oc1ccn3c(-c4cc(OC)c(C(=O)NC5CC5)c(OC(F)F)c4)cnc3c1)C2 (stereo partly drawn) [compound 272, ethyl 2-[(1R,5S)-3-[3-[4-(cyclopropylcarbamoyl)-3-(difluoromethoxy)-5-methoxy-phenyl]imidazo[1,2-a]pyridin-7-yl]oxy-8-azabicyclo[3.2.1]octan-8-yl]acetate] | 100 to 500 | 10 to 100 | 10 to 100 | – | +++ (>4.5) | 0.1 to 100 |
| COc1cc(-c2cnc3cc(OCC4CN(CC#N)C4)ccn23)cc(OC(F)F)c1C(=O)NC1CC1 [Cpd 322, 4-[7-[[1-(cyanomethyl)azetidin-3-yl]methoxy]imidazo[1,2-a]pyridin-3-yl]-N-cyclopropyl-2-(difluoromethoxy)-6-methoxy-benzamide] | 10 to 100 | 0.01 to 10 | 0.01 to 10 | – | ++ (>1.5-4.5) | 0.1 to 100 |
